Entries after “also recorded” stand apart in the source; their conditions may differ.
Experiments:
Format in all cases: cell-based
D2HGDH = molecular target: T1, D2HGDH (Homo sapiens, UniProt Q8N465); test: Isotope tracing of uniformly carbon labeled D-2HG into the TCA cycle; settings: FIG. 8
T1 construct: endogenous in cells
T1 sequence (Q8N465 14-521): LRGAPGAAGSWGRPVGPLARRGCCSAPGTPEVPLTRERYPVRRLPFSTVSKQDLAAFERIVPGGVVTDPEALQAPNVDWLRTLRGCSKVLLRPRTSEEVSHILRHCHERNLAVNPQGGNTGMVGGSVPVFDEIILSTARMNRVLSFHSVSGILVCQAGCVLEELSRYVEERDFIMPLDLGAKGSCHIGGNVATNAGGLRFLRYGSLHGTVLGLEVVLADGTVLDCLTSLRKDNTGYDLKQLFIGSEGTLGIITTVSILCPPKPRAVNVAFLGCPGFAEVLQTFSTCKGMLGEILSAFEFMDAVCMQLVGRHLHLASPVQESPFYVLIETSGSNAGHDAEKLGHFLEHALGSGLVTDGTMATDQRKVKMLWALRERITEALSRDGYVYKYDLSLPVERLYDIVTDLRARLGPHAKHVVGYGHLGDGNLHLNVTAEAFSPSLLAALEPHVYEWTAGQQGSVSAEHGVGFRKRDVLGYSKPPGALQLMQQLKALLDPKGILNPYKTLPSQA

T cells [1] = test: Mitochondrial respiration / electron transport chain function in T cells; settings: D-2HG treated T cells, stress conditions
From the text: (§1) H2O2 and NAC were used as positive and negative controls, respectively. *P<0.05, **P<0.01, ***P<0.001, ****P<0.0001 (Two-way ANOVA).

T cells [2] = test: ROS levels following 24 hour treatment; settings: FIG. 7
From the text: as §1

T cells [3] = test: T cell proliferation upon activation by Cell Trace Violet staining; settings: different concentrations of D-2HG, FIG. 6
T cells [4] = test: TCA cycle metabolite levels after 48 hour treatment upon T cell activation; settings: FIG. 2
Experimental: A 2 day treatment of 1 mM NMN was used as a positive control. *P<0.05, **P<0.01 (Student's t test and two-way ANOVA).

T cells [5] = test: Apoptosis by Annexin and PI staining; settings: after 24 hours of treatment; FIG. 6
T cells [6] = test: D-2HG uptake in T cells
From the text: as §1

T cells [7] = test: Effector function and antigen specific killing assay, OT-1 T cells against B16 OVA+ or OVA− tumor cells
From the text: Data were normalized to cell number. […] Data were normalized to cell number.

GL261 cells = test: Mitochondrial membrane potential by TMRE staining in GL261 cells; settings: cancer cells (GL261); FIG. 3
Experimental: Mitochondrial membrane potential was measured by TMRE staining in control, D-2HG, and L-2HG treated GL261 cells.

T cells [8] = test: Mitochondrial membrane potential by TMRE staining in T cells; settings: FIG. 4, FIG. 7
From the text: as §1

T cells [9] = test: Metabolite profiling during time course of T cell activation with and without D-2HG; settings: T cells activated with vs without D-2HG; FIG. 1
From the text: Log 2 fold change was normalized to the average levels of control group.

SMILES | metabolism of D-2HG (D2HGDH) | ETC function (T cells [1]) | ROS production (T cells [2]) | T cell proliferation (T cells [3]) | TCA cycle metabolite levels (T cells [4]) | apoptosis (T cells [5]) | uptake by T cells (T cells [6]) | expression of effector markers (T cells [7]; D-2HG treated T cells) | antitumor activity / killing by treated T cells (T cells [7]; T cells activated in presence of D-2HG, FIG. 9) | mitochondrial membrane potential (TMRE) (GL261 cells) | mitochondrial membrane potential (TMRE) (T cells [8]) | effect on T cell metabolism upon activation (T cells [9])
O=C(O)CC[C@@H](O)C(=O)O [D-2HG, D-2hydroxyglutarate] | is metabolized by D2HGDH | ETC function is impaired under stress conditions | increased ROS production | slows down proliferation | causes accumulation of TCA cycle metabolites | promotes apoptosis | is taken up by T cells | increased expression of effector markers | reduced killing; also recorded: results in the generation of effector T cells with inferior antitumor activity | mild effect on mitochondrial membrane potential | causes mitochondrial hyperpolarization | causes broad changes in T cell metabolism upon activation
N#CC(C#N)=NNc1ccc(OC(F)(F)F)cc1 [FCCP, reference compound] |  |  |  |  |  |  |  |  |  |  | decouples membrane potential in both control and D-2HG treated conditions | 
